Earlier results as cited in patent US7968511B2, “Combination therapy with glatiramer acetate and mitoxantrone for the treatment of multiple sclerosis” (Teva Pharmaceutical Industries, Ltd., priority 2003, dated 2011).

System: multiple sclerosis (MS)
Conditions: daily subcutaneous injections, 20 mg/injection

L-glutamic acid polymer with L-alanine, L-lysine and L-tyrosine, acetate (salt) [glatiramer acetate]
reduce: appearance of "black holes" | appearance of new lesions by magnetic resonance imaging (MRI) | progression of disability | relapse rates
